According to patent US9770451B2, “Composition including ATM inhibitor for reducing cellular senescence and use of the composition” (Samsung Electronics Co., Ltd., priority 2014, dated 2017):

How the values were obtained:
[1] = tested on: progeria senescent fibroblasts (passage 17); experiment: ROS measurement (MitoSOX Red); type: cell-based, human; conditions: CP-466722 0.1 μM
Description: ROS was measured according to the protocol of the manufacturer using a 0.2 μM MitoSOX™ Red reagent (Invitrogen, M36008). In detail, 2 μL of the reagent that was stored in a 1,000-fold concentration was added to a 2 ml medium sufficiently enough to cover the cultured cells that were attached to a coverslip. While being protected from light, the cells were further incubated at a temperature of 37° C. for 30 minutes. The cultured cells were irradiated with a wavelength of 520 nm by using a FACSCaliber (Beckton Dickinson), and then, measured with radiation emitted from a wavelength of 580 nm. The results were analyzed using Cell Quest 3.2 software (Beckton Dickinson). FIG. 12 is a graph showing results of measuring ROS (A) and mitochondrial membrane potential (B) of the progeria senescent fibroblasts (passage 17) that were cultured in the presence of an ATM-kinase inhibitor KU-60019 (0.5 μM).
ROS was measured according to the protocol of the manufacturer using a 0.2 μM MitoSOX™ Red reagent (Invitrogen, M36008). […] The cultured cells were irradiated with a wavelength of 520 nm by using a FACSCaliber (Beckton Dickinson), and then, measured with radiation emitted from a wavelength of 580 nm. The results were analyzed using Cell Quest 3.2 software (Beckton Dickinson).

[2] = tested on: senescent fibroblasts (passage 37); experiment: Cell proliferation and formation of cell colonies (crystal violet staining); type: cell-based, human; conditions: CP-466722; staining after 4 days
Description: A human fibroblast cell line was inoculated into a Dulbecco's Modified Eagle's medium (DMEM) containing 10% fetal bovine serum (FBS), 100 units/ml of penicillin, and 100 μg/ml of streptomycin (wherein these two antibiotics were purchased from Gibro-BRL, Grand Island, N.Y.), and then, cultured in a 5% CO2 incubator at a temperature of 37° C. The fibroblast cell line (i.e., M11 strain) was a cell line derived from the foreskin of a child. When the cells were grown to about 85% confluency in a plate, the cells were subjected to subculture. The early subculture was carried out at a split ratio of 1:4, and the late subculture was carried out at a split ratio of 1:2. When the cell doubling time was 14 days, the cells were considered to be senescent fibroblasts (passages 35 to 37).
To determine the optimal concentration upon the treatment with an ATM-kinase inhibitor KU-60019 (SELLECKCHEM, S1570, salt), the senescent fibroblasts (passage 37) were inoculated into each well of a 6-well plate at a concentration of 2,000 cells/well, and then, KU-60019 was added to each well of the 6-well plate ([…]). In addition, as a negative control group, the cells were cultured under the same conditions as described above, except that a medium used herein contained a dimethyl sulfoxide (DMSO) (0.05 (v/v) %) medium. […]

COc1cc2ncnc(-n3nc(-c4ccccn4)nc3N)c2cc1OC [CP-466722, 2-(6,7-dimethoxyquinazolin-4-yl)-5-(pyridin-2-yl)-2H-1,2,4-triazol-3-amine]
amount of ROS vs control [1]: significantly decreased | concentration producing best results in the cell proliferation and the formation of cell colonies [2]: 0.1 µM
